From PMC9295122, “Sialic Acid Derivatives Inhibit SiaT Transporters and Delay Bacterial Growth” (ACS Chemical Biology, 2022)
“Also recorded” adds a separate entry of the source.

Columns and labels:
[1] = target: SaSiaT (Staphylococcus aureus, UniProt A0A0H2XJ46); test: [3H]Neu5Ac efflux in proteoliposomes, SaSiaT; format: biochemical; details: 0.1 mM external compound
Experimental: Figure 5 Kinetic analysis of the inhibition of recombinant SiaT from P. mirabilis (A,B) and S. aureus (C,D) reconstituted in proteoliposomes and [^3H]Neu5Ac efflux in proteoliposomes (E,F). (a–d) Data were plotted according to Lineweaver–Burk as a reciprocal transport rate vs reciprocal Neu5Ac concentration. The transport rate was measured, in 5 min, by adding [^3H] Neu5Ac at the indicated concentrations to proteoliposomes containing 20 mM K^+-gluconate in the presence of valinomycin as described in the Supporting Information. [(A,B) P. mirabilis SiaT]; (A) compound 3f 0.25 μM (●) or 0.75 μM (□) was added in comparison to samples without inhibitor (○). […] Data are calculated as the percent of residual activity with respect to the control sample (efflux time zero). […]
For uptake experiments, 600 μL of proteoliposomes were loaded onto a Sephadex G-75 column (0.7 cm diameter × 15 cm height), pre-equilibrated with 20 mM Hepes Tris pH 7.0 with 40 mM sucrose to balance the internal osmolarity. […] For kinetic measurement, the initial transport rate was measured by stopping the reaction after 5 min, that is, within the initial linear range of [^3H]-Neu5Ac uptake into the proteoliposomes previously described. […] Proteoliposomes were eluted with 1 mL of 50 mM NaCl and collected in a 4 mL of scintillation mixture, vortexed and counted.

[2] = tested on: E. coli JW3193 ΔNanT expressing PmSiaT; test: Growth of E. coli JW3193 ΔNanT expressing PmSiaT; format: cell-based, Escherichia coli; details: for effect on growth on sialic acid: 0.5 mM sialic acid + 1 mM inhibitor; for growth with inhibitor as only carbon source: 1 mM inhibitor
From the text: To further investigate bacterial growth inhibition, we employed a model system of E. coli JW3193 ΔNanT expressing the SaSiaT and PmSiaT transporters. We designed these experiments to test if compounds 3e and 3f could inhibit the Neu5Ac transport in vivo because, without an active sialic acid transporter, E. coli JW3193 ΔNanT cannot grow on Neu5Ac.[16],[21]
For the bacterial growth experiments, the pJ422-01 plasmid containing the relevant SiaT or NanT gene was transformed into the E. coli JW3193 ΔnanT strain.[21] Throughout the experiments, strains containing the pJ422-01 plasmid were grown in media supplemented with 25 μg/mL Zeocin. E. coli BW25113, empty E. coli JW3193, and E. coli JW3193 with pJ422-01 containing the NanT gene were also used as controls. Strains were initially plated out from glycerol stocks before a single colony was picked and grown overnight in low salt LB media at 37 °C, with shaking at 180 rpm. Overnight cultures were diluted to an OD600 of 0.05 using low salt LB [supplemented with 1 mM isopropyl β-D-1-thiogalactopyranoside (IPTG)], before they were incubated at 37 °C, with shaking at 250 rpm, until they reached an OD600 of 0.3. At this point, 5 mL of each culture was centrifuged at 6000g for 5 min at 25 °C. The supernatants were removed and the cell pellets were resuspended in 5 mL of M9 MM without glucose prior to being centrifuged again at 6000g for 5 min at 25 °C. This wash step was repeated twice more before cells were resuspended to an OD600 of 0.5 in M9 MM without glucose. A Corning Costar Flat Bottom 96 Well TC-treated microplate was set up with 180 μL of M9 MM containing 1 mM IPTG (for the pJ422-01 strains) and either 5 mM glucose, 0.5 mM sialic acid, and 0.5 mM sialic acid with 1 mM of either inhibitor, or 1 mM of either inhibitor as a carbon source. To the 180 μL of media, 20 μL of each culture were added to the plate (OD600 of 0.05), before it was loaded into a FLUOstar Omega microplate reader (BMG Labtech). Growth was recorded at 600 nm every 10 min at 37 °C, with shaking at 300 rpm. Growth curves represent the mean and standard deviation of measurement from triplicate measurements (glucose/no carbon source in duplicate).
Fig. S5. Growth of E. coli JW3193 ΔNanT expressing the SaSiaT and PmSiaT transporters from a plasmid and using various carbon sources and in the presence or absence of inhibitors, 3e and 3f. […]
(B) PmSiaT is again expressed from a plasmid in the E. coli strain JW3193 ΔNanT, where the native sialic acid transporter (NanT) is deleted. The strain grows normally when in media with glucose (black line). There is no growth in the absence of any carbon source (grey line). In the presence of sialic acid at 0.5 mM the strain grows to an OD of ~0.5 (red line), showing that the transporter is functional. […]
substrates. […]

Chain of SaSiaT (A0A0H2XJ46 entry or part of it): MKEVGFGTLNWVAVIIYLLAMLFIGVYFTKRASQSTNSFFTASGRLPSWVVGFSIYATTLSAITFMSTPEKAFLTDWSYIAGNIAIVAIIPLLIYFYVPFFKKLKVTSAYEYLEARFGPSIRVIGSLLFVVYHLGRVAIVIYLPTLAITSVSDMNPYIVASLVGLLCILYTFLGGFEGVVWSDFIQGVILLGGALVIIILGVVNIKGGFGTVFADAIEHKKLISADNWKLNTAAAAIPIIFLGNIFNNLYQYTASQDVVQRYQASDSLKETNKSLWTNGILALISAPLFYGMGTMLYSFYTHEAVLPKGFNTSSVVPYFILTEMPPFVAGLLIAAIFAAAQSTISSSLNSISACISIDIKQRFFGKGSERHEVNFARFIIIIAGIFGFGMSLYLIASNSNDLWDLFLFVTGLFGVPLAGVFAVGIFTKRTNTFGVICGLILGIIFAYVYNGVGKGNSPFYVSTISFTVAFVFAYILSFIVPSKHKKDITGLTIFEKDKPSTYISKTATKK

CC(=O)NC1C(OCc2cc(F)cc(F)c2)CC(O)(C(=O)O)OC1C(O)C(O)CO (stereo not drawn) [Compound 3e]
[3H]Neu5Ac efflux induced [1]: to the same extent as Neu5Ac
effect on growth on sialic acid [2]: no effect on growth; also recorded: neither inhibitor seemed to alter bacterial growth
growth with inhibitor as only carbon source [2]: no growth

CC(=O)NC1C(OCc2cc(Br)cc(Br)c2)CC(O)(C(=O)O)OC1C(O)C(O)CO (stereo not drawn) [Compound 3f]
[3H]Neu5Ac efflux induced [1]: negligible
effect on growth on sialic acid [2]: no effect on growth; also recorded: neither inhibitor seemed to alter bacterial growth
growth with inhibitor as only carbon source [2]: no growth
